Experimental data reported in patent US6228382A, “Microbiocidal mixtures” (ETC C.V., priority 1996, dated 2001).

How the values were obtained:
[1] = Determination of the octanol/water partition coefficients (logPow) by HPLC, OECD guideline 117; format: physicochemical; details: rp 18 hplc; HPLC method, RP 18 column, OECD 117; read-out: logPow (octanol/water partition coefficient)
[2] = Determination of the relative leaching rate from house paint (watering with tap water, HPLC of methanol extracts); format: physicochemical
Source text: First, 128 parts by weight (PW) of water were initially charged. 11 PW of a 10% strength by weight solution of Calgon N (sodium triphosphate) were subsequently stirred into the water. Thereafter, 2 PW of Tylose MHB 6000 (from Hoechst AG), 3 PW of Additol XW 330 (from Hoechst AG), 4 PW of Agitan 260 (from Munzing-Chemie, Heilbronn), 226 PW of titanium dioxide (for example from Kronos 2065), 375 PW of MOWILITH® DM 771 (about 50%) (from. HOECHST), 84 PW of Omyacarb 5 (from Omya), 84 PW of Micro Mica W1, 38 PW of Micro Talc AT 1 and 20 PW of China Clay D were added and homogenized. 11 PW of white spirit, 8 PW of butyl diglycol acetate and 4 PW of MERGAL® K 9 N (Riedel de Haen) were stirred into the resulting mixture. The pH of the resulting house paint was 8.8.
The preservatives listed in Table 2 were homogeneously dispersed into the resulting house paint.
The resulting paint sample was in each case drawn out to a film of approximately 150 g/m^2 on paper, using a knife. The paint sample prepared in this manner was subsequently dried at a temperature of 30° C. for 72 hours.
Test samples having a diameter of 5.5 cm were punched out from the paint sample. To simulate leaching by rainwater, these paint-coated test samples were watered with tap water (46.7 1/day/m^2 of paint). Test samples were taken in each case after 24 hours and air-dried for 72 hours.
To determine the microbicide concentration, in each case one specimen was extracted in methanol. The methanol extracts were analysed by HPLC. […]
column: RP-phenyl (Hypersil 5 μ) mobile phase: gradient water/acetonitrile
UV-Detector: 220 nm and 200 nm
Since in each analysis, the substances listed in Table 3 were measured as the area under the HPLC signal, it is possible to relate the leaching rates directly to the known active compounds OITZ and Mctt.

**Q.** Which chromatographic logP [1] does the source give for CCCCCCCCn1sccc1=O [OITZ, 2-n-octylisothiazolin-3-one] here?
**A.** 2.89

**Q.** With CCCCCCCCCn1sccc1=O [NITZ, 2-n-nonylisothiazolin-3-one] as the molecule, how does the chromatographic logP [1] read?
**A.** 3.51

**Q.** With CCCCCCCCCCCn1sccc1=O [compound 11, 2-n-undecylisothiazolin-3-one] as the molecule, how does the chromatographic logP [1] read?
**A.** 4.76

**Q.** For CCCCCCCCCCn1sccc1=O [DITZ, 2-n-decyl-isothiazolin-3-one], which chromatographic logP [1] is on record?
**A.** 4.14

**Q.** What does the source list for CSc1nc(NC2CC2)nc(NC(C)(C)C)n1 [Mctt, 2-methylthio-4-cyclopropylamino-6-t-butylamino-1,3,5-triazine]?
**A.** HPLC area ([2]; 0 h watering): 955.2 arbitrary units; HPLC relative area ([2]; 0 h watering): 1; HPLC area ([2]; 24 h watering): 787.1 arbitrary units; HPLC relative area ([2]; 24 h watering): 0.824; HPLC area ([2]; 48 h watering): 800.2 arbitrary units; HPLC relative area ([2]; 48 h watering): 0.837; HPLC area ([2]; 72 h watering): 677.6 arbitrary units; HPLC relative area ([2]; 72 h watering): 0.708; HPLC area ([2]; 96 h watering): 547.4 arbitrary units; HPLC relative area ([2]; 96 h watering): 0.572

**Q.** With CCCCCCCCCCCCn1sccc1=O [dodecyl-ITZ, 2-n-dodecylisothiazolin-3-one] as the molecule, how does the chromatographic logP [1] read?
**A.** 5.36
